Reference: patent US20260021103A1, “IKZF2 AND CK1-ALPHA DEGRADING COMPOUNDS AND USES THEREOF” (President and Fellows of Harvard College, priority 2022, published 2026)
One block for each molecule: values may come before it.

Assays:
Type in all cases: cell-based
Details in all cases: 24 h, HEK293T GFP reporter
GSPT1 = GSPT1 (Homo sapiens, UniProt P15170+Q96SW2); assay: Flow cytometry for measuring degradation, HEK293T GFP-POI reporter cells (GSPT1); design: expressed in transfected cells; host or cells: HEK293T
IKZF1 = molecular target: T1, IKZF1 (Homo sapiens, UniProt Q13422+Q96SW2); assay: Flow cytometry for measuring degradation, HEK293T GFP-POI reporter cells (IKZF1)
T1 construct: expressed in transfected cells; host or cells: HEK293T (lentiviral transduction, puromycin selection, FACS sorting)

CK1α = molecular target: T2, CK1α (Homo sapiens, UniProt P48729+Q96SW2); assay: Flow cytometry for measuring degradation, HEK293T GFP-POI reporter cells (CK1α)
T2 construct: expressed in transfected cells; host or cells: HEK293T (lentiviral transduction, puromycin selection, FACS sorting)

IKZF2 = molecular target: T3, IKZF2 (Homo sapiens, UniProt Q96SW2+Q9UKS7); assay: Flow cytometry for measuring degradation, HEK293T GFP-POI reporter cells (IKZF2)
T3 construct: expressed in transfected cells; host or cells: HEK293T (lentiviral transduction, puromycin selection, FACS sorting)
T3 sequence (Q9UKS7 whole entry): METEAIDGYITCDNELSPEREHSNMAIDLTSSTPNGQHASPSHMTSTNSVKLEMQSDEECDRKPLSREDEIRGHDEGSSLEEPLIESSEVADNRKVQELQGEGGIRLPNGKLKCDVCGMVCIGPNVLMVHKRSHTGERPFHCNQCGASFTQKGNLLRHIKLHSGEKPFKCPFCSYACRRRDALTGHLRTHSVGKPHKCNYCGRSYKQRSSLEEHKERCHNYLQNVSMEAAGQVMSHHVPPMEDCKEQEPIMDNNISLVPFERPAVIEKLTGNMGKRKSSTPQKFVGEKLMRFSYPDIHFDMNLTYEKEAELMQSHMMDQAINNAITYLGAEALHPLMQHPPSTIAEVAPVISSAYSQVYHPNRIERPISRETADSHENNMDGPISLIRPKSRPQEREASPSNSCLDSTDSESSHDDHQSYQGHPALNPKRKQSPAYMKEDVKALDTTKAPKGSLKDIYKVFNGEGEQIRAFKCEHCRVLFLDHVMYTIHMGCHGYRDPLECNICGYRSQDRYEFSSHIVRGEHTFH
T3 sequence (Q96SW2 whole entry): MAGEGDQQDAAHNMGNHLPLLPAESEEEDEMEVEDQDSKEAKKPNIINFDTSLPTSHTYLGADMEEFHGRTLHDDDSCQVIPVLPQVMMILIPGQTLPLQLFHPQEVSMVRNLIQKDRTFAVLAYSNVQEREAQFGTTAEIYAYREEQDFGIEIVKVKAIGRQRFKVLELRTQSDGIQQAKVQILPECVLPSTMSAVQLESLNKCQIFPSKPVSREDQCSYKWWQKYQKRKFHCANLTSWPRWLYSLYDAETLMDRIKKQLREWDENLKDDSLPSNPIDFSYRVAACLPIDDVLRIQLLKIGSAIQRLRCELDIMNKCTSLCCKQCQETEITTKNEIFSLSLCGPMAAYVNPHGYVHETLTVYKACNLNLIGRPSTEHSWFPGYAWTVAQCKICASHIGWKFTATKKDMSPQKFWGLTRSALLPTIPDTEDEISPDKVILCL
T3 sequence (Q16531 whole entry partner): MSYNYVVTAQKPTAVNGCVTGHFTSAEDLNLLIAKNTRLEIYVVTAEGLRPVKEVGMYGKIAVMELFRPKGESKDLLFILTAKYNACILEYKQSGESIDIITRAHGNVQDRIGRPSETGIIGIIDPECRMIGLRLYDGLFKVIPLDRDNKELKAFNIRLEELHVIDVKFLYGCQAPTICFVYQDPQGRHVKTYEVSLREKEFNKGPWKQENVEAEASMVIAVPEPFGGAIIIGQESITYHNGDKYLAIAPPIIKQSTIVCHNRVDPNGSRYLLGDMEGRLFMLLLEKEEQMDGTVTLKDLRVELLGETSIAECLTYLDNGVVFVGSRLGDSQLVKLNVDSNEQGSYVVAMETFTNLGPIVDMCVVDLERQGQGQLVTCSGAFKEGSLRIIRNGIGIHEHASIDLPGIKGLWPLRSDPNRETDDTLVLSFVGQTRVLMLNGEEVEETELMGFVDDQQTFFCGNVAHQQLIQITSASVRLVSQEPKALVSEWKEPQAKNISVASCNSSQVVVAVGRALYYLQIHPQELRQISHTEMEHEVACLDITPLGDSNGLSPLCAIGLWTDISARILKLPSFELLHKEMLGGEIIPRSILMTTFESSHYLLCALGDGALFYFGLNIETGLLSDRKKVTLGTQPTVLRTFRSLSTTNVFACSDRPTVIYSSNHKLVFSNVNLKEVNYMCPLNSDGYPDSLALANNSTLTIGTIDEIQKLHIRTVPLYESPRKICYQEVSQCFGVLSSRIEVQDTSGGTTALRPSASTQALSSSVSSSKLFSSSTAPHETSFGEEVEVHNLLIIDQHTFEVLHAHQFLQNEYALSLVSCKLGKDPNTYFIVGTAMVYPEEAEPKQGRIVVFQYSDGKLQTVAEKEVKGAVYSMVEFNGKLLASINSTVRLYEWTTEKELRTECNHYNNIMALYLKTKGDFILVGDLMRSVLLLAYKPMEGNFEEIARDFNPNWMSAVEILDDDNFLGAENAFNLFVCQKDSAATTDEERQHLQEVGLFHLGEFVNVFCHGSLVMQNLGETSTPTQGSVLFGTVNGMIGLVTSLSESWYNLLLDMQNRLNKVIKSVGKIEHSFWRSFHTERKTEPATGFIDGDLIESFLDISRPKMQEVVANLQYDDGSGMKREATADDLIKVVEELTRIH

T2 sequence (P48729 whole entry): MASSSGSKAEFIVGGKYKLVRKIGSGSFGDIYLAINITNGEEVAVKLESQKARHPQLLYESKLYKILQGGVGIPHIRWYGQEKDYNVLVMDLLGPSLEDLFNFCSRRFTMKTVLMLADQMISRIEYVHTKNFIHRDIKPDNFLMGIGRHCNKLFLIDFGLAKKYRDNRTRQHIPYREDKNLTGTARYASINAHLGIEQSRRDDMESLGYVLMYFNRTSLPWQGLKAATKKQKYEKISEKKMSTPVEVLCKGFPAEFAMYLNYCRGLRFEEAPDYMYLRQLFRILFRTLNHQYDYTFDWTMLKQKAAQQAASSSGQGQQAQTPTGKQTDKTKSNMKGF
T2 sequence (Q96SW2 whole entry): as the sequence (Q96SW2 whole entry) above
T2 sequence (Q16531 whole entry partner): as the sequence (Q16531 whole entry partner) above
T1 sequence (Q13422 whole entry): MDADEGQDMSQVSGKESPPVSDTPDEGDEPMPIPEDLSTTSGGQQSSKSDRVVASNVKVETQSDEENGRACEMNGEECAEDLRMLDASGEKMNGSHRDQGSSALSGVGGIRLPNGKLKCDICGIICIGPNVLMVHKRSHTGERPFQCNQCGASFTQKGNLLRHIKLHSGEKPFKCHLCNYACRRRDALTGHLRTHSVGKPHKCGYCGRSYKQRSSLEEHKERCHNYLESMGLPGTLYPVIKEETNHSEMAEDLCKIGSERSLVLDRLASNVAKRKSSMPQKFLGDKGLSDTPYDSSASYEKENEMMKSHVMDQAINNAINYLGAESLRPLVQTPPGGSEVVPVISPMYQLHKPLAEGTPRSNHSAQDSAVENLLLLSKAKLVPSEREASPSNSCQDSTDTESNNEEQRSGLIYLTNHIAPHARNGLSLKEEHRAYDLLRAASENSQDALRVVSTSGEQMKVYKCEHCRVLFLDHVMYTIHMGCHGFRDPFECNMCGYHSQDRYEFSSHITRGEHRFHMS
T1 sequence (Q96SW2 whole entry): as the sequence (Q96SW2 whole entry) above
T1 sequence (Q16531 whole entry partner): as the sequence (Q16531 whole entry partner) above
Sequence of GSPT1 (P15170 whole entry): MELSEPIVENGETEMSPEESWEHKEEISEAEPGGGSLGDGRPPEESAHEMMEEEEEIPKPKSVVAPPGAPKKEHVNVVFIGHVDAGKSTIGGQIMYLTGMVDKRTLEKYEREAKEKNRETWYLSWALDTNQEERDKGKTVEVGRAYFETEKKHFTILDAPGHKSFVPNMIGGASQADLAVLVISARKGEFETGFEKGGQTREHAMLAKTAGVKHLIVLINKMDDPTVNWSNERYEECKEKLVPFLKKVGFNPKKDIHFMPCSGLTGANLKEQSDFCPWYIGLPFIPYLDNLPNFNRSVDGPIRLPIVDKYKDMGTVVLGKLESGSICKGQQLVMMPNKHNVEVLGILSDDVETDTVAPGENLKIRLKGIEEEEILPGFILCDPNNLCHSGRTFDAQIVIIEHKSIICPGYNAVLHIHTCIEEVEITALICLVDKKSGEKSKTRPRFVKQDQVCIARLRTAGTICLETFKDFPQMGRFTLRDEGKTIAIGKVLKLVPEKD
Sequence of GSPT1 (Q96SW2 whole entry): as the sequence (Q96SW2 whole entry) above
Sequence of GSPT1 (Q16531 whole entry partner): as the sequence (Q16531 whole entry partner) above

SMILES: COc1cc(Oc2ccccc2)ccc1C(=O)Nc1ccc2c(c1)CN(C1CCC(=O)NC1=O)C2=O (stereo not drawn) [DEG-75, N-(2-(2,6-dioxopiperidin-3-yl)-1-oxoisoindolin-5-yl)-2-methoxy-4-phenoxybenzamide]
GSPT1% degradation at 100 nM (GSPT1): 0.4 ± 1.4%
GSPT1% degradation at 1 μM (GSPT1): 12.6 ± 1.2%
IKZF1% degradation at 100 nM (IKZF1): 2.4 ± 1.1%
IKZF1% degradation at 1 μM (IKZF1): 7 ± 0.4%
CK1α % degradation at 100 nM (CK1α): 48.1 ± 2.2%
CK1α % degradation at 1 μM (CK1α): 64 ± 1.5%
IKZF2% degradation at 100 nM (IKZF2): 54.6 ± 1.1%
IKZF2% degradation at 1 μM (IKZF2): 83.3 ± 0.3%

SMILES: CC(=O)Nc1ccc2c(c1)CN(C1CCC(=O)NC1=O)C2=O (stereo not drawn) [DEG-66, N-(2-(2,6-dioxopiperidin-3-yl)-1-oxoisoindolin-5-yl)acetamide]
GSPT1% degradation at 100 nM (GSPT1): 9.9 ± 0.8%
GSPT1% degradation at 1 μM (GSPT1): 8.6 ± 0.8%
IKZF1% degradation at 100 nM (IKZF1): 4.4 ± 0.8%
IKZF1% degradation at 1 μM (IKZF1): 10.9 ± 0.9%
CK1α % degradation at 100 nM (CK1α): 12 ± 1.3%
CK1α % degradation at 1 μM (CK1α): 25.4 ± 0.8%
IKZF2% degradation at 100 nM (IKZF2): 16.6 ± 0.1%
IKZF2% degradation at 1 μM (IKZF2): 48.5 ± 0.2%

SMILES: COc1ccc2c(CC(=O)Nc3ccc4c(c3)CN(C3CCC(=O)NC3=O)C4=O)cccc2c1 (stereo not drawn) [DEG-58, N-(2-(2,6-dioxopipperidin-3-yl)-1-oxoisoindolin-5-yl)-2-(6-methoxynaphthalen-1-yl)acetamide]
GSPT1% degradation at 100 nM (GSPT1): 29 ± 1.9%
GSPT1% degradation at 1 μM (GSPT1): 41.9 ± 0.8%
IKZF1% degradation at 100 nM (IKZF1): 97.7 ± 0.1%
IKZF1% degradation at 1 μM (IKZF1): 98.4 ± 0%
CK1α % degradation at 100 nM (CK1α): 63.4 ± 0.6%
CK1α % degradation at 1 μM (CK1α): 57 ± 0.1%
IKZF2% degradation at 100 nM (IKZF2): 93 ± 0.2%
IKZF2% degradation at 1 μM (IKZF2): 95.8 ± 0.1%

Results, then the molecule that gave them:

GSPT1% degradation at 100 nM (GSPT1): 24 ± 1%
GSPT1% degradation at 1 μM (GSPT1): 44.3 ± 1.3%
IKZF1% degradation at 100 nM (IKZF1): 39.4 ± 0.8%
IKZF1% degradation at 1 μM (IKZF1): 70.3 ± 0.2%
CK1α % degradation at 100 nM (CK1α): 59.4 ± 1%
CK1α % degradation at 1 μM (CK1α): 38.1 ± 3.4%
IKZF2% degradation at 100 nM (IKZF2): 74.6 ± 0.3%
IKZF2% degradation at 1 μM (IKZF2): 93 ± 0.1%
SMILES: COc1cccc2c1C=C(C(=O)Nc1ccc3c(c1)CN(C1CCC(=O)NC1=O)C3=O)CO2 (stereo not drawn) [DEG-79, N-(2-(2,6-dioxopiperidin-3-yl)-1-oxoisoindolin-5-yl)-5-methoxy-2H-chromene-3-carboxamide]

GSPT1% degradation at 100 nM (GSPT1): 5.3 ± 2%
GSPT1% degradation at 1 μM (GSPT1): 9.2 ± 0.7%
IKZF1% degradation at 100 nM (IKZF1): 12.3 ± 0.9%
IKZF1% degradation at 1 μM (IKZF1): 22.6 ± 0.5%
CK1α % degradation at 100 nM (CK1α): 46.5 ± 2.5%
CK1α % degradation at 1 μM (CK1α): 54.7 ± 1.2%
IKZF2% degradation at 100 nM (IKZF2): 48.7 ± 1.1%
IKZF2% degradation at 1 μM (IKZF2): 62.6 ± 0.5%
SMILES: O=C1CCC(N2Cc3cc(NC(=O)C4=Cc5cc(Br)cc(Br)c5OC4)ccc3C2=O)C(=O)N1 (stereo not drawn) [DEG-86, 6,8-dibromo-N-(2-(2,6-dioxopiperidin-3-yl)-1-oxoisoindolin-5-yl)-2H-chromene-3-carboxamide]

GSPT1% degradation at 100 nM (GSPT1): 21.8 ± 2.3%
GSPT1% degradation at 1 μM (GSPT1): 49 ± 0.8%
IKZF1% degradation at 100 nM (IKZF1): 12.9 ± 1%
IKZF1% degradation at 1 μM (IKZF1): 47.5 ± 0.2%
CK1α % degradation at 100 nM (CK1α): 61.9 ± 0.4%
CK1α % degradation at 1 μM (CK1α): 30.2 ± 2.3%
IKZF2% degradation at 100 nM (IKZF2): 80.4 ± 0.5%
IKZF2% degradation at 1 μM (IKZF2): 94.4 ± 0.2%
SMILES: O=C1CCC(N2Cc3cc(NC(=O)C4=Cc5ccc(Br)cc5OC4)ccc3C2=O)C(=O)N1 (stereo not drawn) [DEG-83, 7-bromo-N-(2-(2,6-dioxopiperidin-3-yl)-1-oxoisoindolin-5-yl)-2H-chromene-3-carboxamide]
